# Where two headings read alike, the source gives them in different places.
# Legend:
# [1] = system: N-methyl-D-aspartate (NMDA) receptors; settings: cited from earlier work
# [2] = system: kainate receptors; settings: in words, background; cited from earlier work
# [3] = system: Quisqualate receptors; settings: in words, background; cited from earlier work
# [4] = molecular target: quisqualate type receptors; test: 3H-AMPA binding (Test 1); settings: rat cerebral cortical membrane homogenate; 5 nM 3H-AMPA; 0° C., 30 min, pH 7.1
# Source text: The quisqualate receptor binding activity of the compounds of the present invention can be illustrated by determining their capability for displacing radioactively labelled 2-amino-3-hydroxy-5-methyl-4-isoxazolepropionic acid (AMPA) from the quisqualate type receptors.
# The displacement activity of the compounds may be shown by determining the IC50 value which represents the concentration (μg/ml) which causes a displacement of 50% of the specific binding of ^3 H-AMPA.
# ^3 H-AMPA binding (Test 1)
# 500 μl of thawed rat cerebral cortical membrane homogenate in Tris-HCl (30 mM), CaCl2 (2.5 mM) and KSCN (100 mM) pH 7.1 were incubated at 0° C. for 30 min. with 25 μl ^3 H-AMPA (5 nM final concentration) and the test compound and buffer. Non-specific binding was determined by incubation with L-glutamic acid (600 μM final concentration). The binding reaction was terminated by adding 5 ml of ice-cold buffer followed by filtration through Whatman GF/C glass fibre filters and 2×5 ml wash with ice-cold buffer. Bound radioactivity was measured by scintillation counting. IC50 was determined by Hill analysis of at least four concentrations of test compound.
# [5] = system: quisqualic acid stimulated Na^+ -efflux from rat striatal slices; test: Antagonism of quisqualic acid induced 22Na+ release (Test 2); assay type: cell-based; settings: rat striatum slices; quisqualic acid 2 μg/ml; read-out: Test 2 EC50 (reduces rate of quisqualic acid stimulated sodium efflux by 50%)
# Method: The quisqualate antagonism is measured by determining the EC50 value which represents the concentration which reduces the rate of quisqualic acid stimulated sodium efflux by 50%.
# Antagonism of quisqualic acid induced ^22 Na^+ -release (Test 2)
# Slices from rat striatum were preincubated with ^22 Na^+ for 30 min. After the ^22 Na^+ loading period, the slices were successively and every minute transferred through a series of tubes, each containing 1.5 ml of a non-radioactive physiological solution saturated with O2, with the help of a basket shaped sieve. Quisqualic acid (2 μg/ml) was present in the last 5 tubes and the compound to be tested was present in the same 5 tubes plus 3 tubes before. The amount of radioactivity in each washout tube as well as that left in the slices at the end of the experiment was measured by scintillation counting. EC50 were calculated by Hill analysis from at least three different concentrations of test compound as the concentration of test compound which reduces the efflux rate of ^22 Na^+ -ions to 50% of the efflux rate in the absence of test compound.
# [6] = system: NMDA stimulated ^3 H-GABA release from cultured mouse cortex neurons; test: Inhibition of NMDA stimulated 3H-GABA release from cultured mouse cerebral cortex interneurons (Test 3); assay type: cell-based; settings: Neuron, 3 μg/ml NMDA, read-out: Test 3 IC50 (inhibits 50% of NMDA induced 3H-GABA release)
# Source text: The NMDA antagonistic properties of the compounds is illustrated by determining their capability to antagonize NMDA stimulated ^3 H-GABA release from cultured mouse cortex neurons.
# The NMDA antagonistic activity of the compounds may be shown by determining the IC50 value, which represents the concentration (μg/ml) which inhibits 50% of NMDA induced ^3 H-GABA release.
# Inhibition of NMDA stimulated ^3 H-GABA release from cultured mouse cerebral cortex interneurons (Test 3) Release experiments are performed using the model described by Drejer et al. (Life Sci. 38, 2077 (1986)). To cerebral cortex interneurons cultured in petri dishes (30 mm) are added 100 μg/ml 3-vinyl-GABA one hour before the experiment in order to inhibit degradation of GABA in the neurons. 30 min before the experiment 5 μCi ^3 H-GABA is added to each culture and after this preloading period the cells are washed twice with a HEPES (N-2 Hydroxyethylpiperazine-N'-2-ethanesulfonic acid) buffered saline (HBS) containing 10 mM HEPES, 135 mM NaCl, 5 mM KCl, 0.6 mM MgSO4, 1.0 mM CaCl2 and 6 mM D-glucose; pH 7 and placed in a superfusion system. This system consists of a peristaltic pump continuously delivering thermostated 37° C. superfusion medium from a reservoir to the top of a slightly-tilted petri dish. The cell monolayer at the bottom of the dish is covered with a piece of nylon mesh to facilitate dispersion of medium over the cell layer. The medium is continuously collected from the lower part of the dish and delivered to a fraction collector. Initially, the cells are superfused with HBS for 15 min (flow rate 2 ml/min). Then cells are stimulated for 30 sec every 4 min by changing the superfusion medium from HBS to a corresponding medium containing NMDA and antagonists according to the following scheme: […]
# stimulation no. 1: 3 μg/ml NMDA stimulation no. 2: 3 μg/ml NMDA+0.3 μg/ml antagonist stimulation no. 3: 3 μg/ml NMDA+3 μg/ml antagonist
# Test substances are dissolved in water or 48% ethanol. The final ethanol concentration in the assay must not exceed 0.1%.
# The release of ^3 H-GABA in the presence of NMDA (stimulated relase in cpm) are corrected for the mean basal release (cpm) before and after the stimulation.
# The stimulated release in the presence of antagonists are expressed relative to the stimulated release by NMDA alone and the IC50 value for the antagonist is calculated (the concentration (μg/ml) of the test substance which inhibits 50% of the NMDA induced ^3 H-GABA release) either from a dose response curve or from the formula: [formula] where Co is stimulated release in control assays and Cx is the stimulated release in the test assay (the calculation assumes normal mass-action interaction). 25-75% inhibition of the NMDA stimulation must be obtained, before calculation of IC50.
SMILES,Test 1 IC50 (displacement of 50% of the specific binding of 3H-AMPA) [4],IC50 [6] [µg/mL],further results
"O=C(O)[C@@H]1CCCN[C@H]1C(=O)O (relative stereo) [trans-2,3-PDA, trans-2,3-piperidine dicarboxylic acid]",,,"agonist activity on NMDA receptors ([1]; in words, background): strong to moderate agonist activity"
N[C@@H](CCC(=O)NCC(=O)O)C(=O)O [3-glutamyl-glycine],,,selectivity for kainate receptors [2]: some selectivity for kainate receptors
"Cc1onc(O)c1CC(N)C(=O)O (stereo not drawn) [AMPA, 2-amino-3-hydroxy-5-methyl-4-isoxazolepropionic acid]",,,agonist activity on quisqualate receptors [3]: potent agonists
N[C@H](CCCC(=O)O)C(=O)O [D-2-amino-adipic acid],,,"antagonist activity on NMDA receptors ([1]; in words, background): moderate antagonist activity"
"N[C@H](CCCCCP(=O)(O)O)C(=O)O [D-APH, 2-amino-7-phosphonoheptanoic acid]",,,"antagonist activity on NMDA receptors ([1]; in words, background): most potent and selective antagonists"
"N[C@H](CCCP(=O)(O)O)C(=O)O [D-APV, 2-amino-5-phosphono-valeric acid]",,,"antagonist activity on NMDA receptors ([1]; in words, background): most potent and selective antagonists"
N[C@H](CCC(=O)O)C(=O)O [D-glutamic acid],,,agonist activity on NMDA receptors [1]: strong to moderate agonist activity
"CCOC(=O)CC[C@H](N)C(=O)OCC [GDEE, Glutamic acid diethyl ester]",,,antagonist activity on quisqualate receptors [3]: selective but very weak antagonist
N[C@H](C(=O)O)c1cc(=O)[nH]o1 [Ibotenic acid],,,"agonist activity on NMDA receptors ([1]; in words, background): strong to moderate agonist activity"
N[C@@H](CCC(=O)O)C(=O)O [L-glutamic acid],,,agonist activity on quisqualate receptors [3]: potent agonists
N[C@@H](CCS(=O)(=O)O)C(=O)O [L-homocysteic acid],,,"agonist activity on NMDA receptors ([1]; in words, background): strong to moderate agonist activity"
N[C@H](CCC[C@H](N)C(=O)O)C(=O)O [diaminopimelic acid],,,"antagonist activity on NMDA receptors ([1]; in words, background): moderate antagonist activity"
N[C@@H](Cn1oc(=O)[nH]c1=O)C(=O)O [quisqualic acid],,,agonist activity on quisqualate receptors [3]: activated selectively

# Now from value to compound, other results behind:
Test 1 IC50 (displacement of 50% of the specific binding of 3H-AMPA) [4],IC50 [6] [µg/mL],SMILES,further results
"13,3 μg/ml",,"Oc1nc2ccc3nn[nH]c3c2nc1O [Ex 1, 7,8 Dihydroxy-1H-1,2,3-triazolo[4,5-f]quinoxaline]",
"0,85 μg/ml",0.26,"O=[N+]([O-])c1cc2nc(O)c(O)nc2c2[nH]nnc12 [Ex 2, 7,8-Dihydroxy-4-nitro-1H-1,2,3-triazolo[4,5-f]quinoxaline]",EC50 [5]: 10 µg/mL
10 µg/mL,,"N#Cc1cc2nc(O)c(O)nc2c2[nH]nnc12 [Ex 4, 4-Cyano-7,8-dihydroxy-1H-1,2,3-triazolo[4,5-f]quinoxaline]",
"0,31 μg/ml",0.096,"Cn1nnc2c([N+](=O)[O-])cc3nc(O)c(O)nc3c21 [Ex 6, 7,8-Dihydroxy-1-methyl-4-nitro-1H-1,2,3-triazolo[4,5-f]quinoxaline]",EC50 [5]: 4.1 µg/mL
"0,41 μg/ml",0.14,"O=[N+]([O-])c1cc2nc(O)c(O)nc2c2[nH]ncc12 [Ex 9, 7,8-Dihydroxy-4-nitro-1H-pyrazolo[3,4-f]quinoxaline]",
"0,36 μg/ml",0.14,"Cn1nc2c([N+](=O)[O-])cc3nc(O)c(O)nc3c2n1 [Ex 11, 7,8-Dihydroxy-2-methyl-4-nitro-2H-1,2,3-triazolo[4,5-f]quinoxaline]",
"0,07 μg/ml",0.11,"Cn1nnc2c3nc(O)c(O)nc3cc([N+](=O)[O-])c21 [Ex 13, 7,8-Dihydroxy-3-methyl-4-nitro-3H-1,2,3-triazolo[4,5-f]quinoxaline]",
"0,19 μg/ml",0.73,"Cn1nnc2c3nc(O)c(O)nc3cc(C#N)c21 [Ex 15, 4-Cyano-7,8-dihydroxy-3-methyl-3H-1,2,3-triazolo[4,5-f]quinoxaline]",
"0,21 μg/ml",,"O=[N+]([O-])c1cc2nc(O)c(O)nc2c2scnc12 [Ex 17, 7,8-Dihydroxy-4-nitrothiazolo[5,4-f]quinoxaline]",
"0,23 μg/ml",0.13,"O=[N+]([O-])c1cc2nc(O)c(O)nc2c2nonc12 [Ex 24, 7,8-Dihydroxy-4-nitro-l,2,5-oxadiazolo(3,4-f)quinoxaline]",
"0,39 μg/ml",0.1,"O=[N+]([O-])c1cc2nc(O)c(O)nc2c2nccnc12 [Ex 35, 2,3-Dihydroxy-6-nitropyrazino(2,3-f)quinoxaline]",
"0,39 μg/ml",0.14,"Cc1nc2c([N+](=O)[O-])cc3nc(O)c(O)nc3c2nc1C [Ex 36, 2,3-Dihydroxy-8,9-dimethyl-6-nitropyrazino(2,3-f)quinoxaline]",
"0,13 μg/ml",0.09,"O=[N+]([O-])c1cc2nc(O)c(O)nc2c2nsnc12 [Ex 38, 7,8-Dihydroxy-4-nitro-1,2,5-thiadiazolo(3,4-f)quinoxaline]",
"1,9 μg/ml",,"Oc1nc2ccc3sccc3c2nc1O [Ex 39, 2,3-Dihydroxythieno[3,2-f]quinoxaline]",
